Test results published in PMC7180948, “New Insights into 4-Anilinoquinazolines as Inhibitors of Cardiac Troponin I–Interacting Kinase (TNNi3K)” (Molecules, 2020).

Tests used:
Test in all cases: biochemical
Design in all cases: KINOMEscan competition binding panel (Eurofins DiscoverX), single concentration, percent inhibition
Conditions in all cases: read-out: 15 at 1 µM % inhibition
CAMK4 = CAMK4 (Homo sapiens, UniProt Q16566)
In short: (§1)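 Binding was profiled in the KINOMEscan panel of over 400 human kinases, with each compound tested at a single concentration of 1 µM to map selectivity.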

CLK3 = CLK3 (Homo sapiens, UniProt P49761)
In short: as §1

CDKL5 = CDKL5 (Homo sapiens, UniProt O76039)
In short: as §1

PIK3CA(I800L) = PIK3CA(I800L) (Homo sapiens, UniProt P42336, I800L)
Chain of PIK3CA(I800L) (P42336 whole entry I800L): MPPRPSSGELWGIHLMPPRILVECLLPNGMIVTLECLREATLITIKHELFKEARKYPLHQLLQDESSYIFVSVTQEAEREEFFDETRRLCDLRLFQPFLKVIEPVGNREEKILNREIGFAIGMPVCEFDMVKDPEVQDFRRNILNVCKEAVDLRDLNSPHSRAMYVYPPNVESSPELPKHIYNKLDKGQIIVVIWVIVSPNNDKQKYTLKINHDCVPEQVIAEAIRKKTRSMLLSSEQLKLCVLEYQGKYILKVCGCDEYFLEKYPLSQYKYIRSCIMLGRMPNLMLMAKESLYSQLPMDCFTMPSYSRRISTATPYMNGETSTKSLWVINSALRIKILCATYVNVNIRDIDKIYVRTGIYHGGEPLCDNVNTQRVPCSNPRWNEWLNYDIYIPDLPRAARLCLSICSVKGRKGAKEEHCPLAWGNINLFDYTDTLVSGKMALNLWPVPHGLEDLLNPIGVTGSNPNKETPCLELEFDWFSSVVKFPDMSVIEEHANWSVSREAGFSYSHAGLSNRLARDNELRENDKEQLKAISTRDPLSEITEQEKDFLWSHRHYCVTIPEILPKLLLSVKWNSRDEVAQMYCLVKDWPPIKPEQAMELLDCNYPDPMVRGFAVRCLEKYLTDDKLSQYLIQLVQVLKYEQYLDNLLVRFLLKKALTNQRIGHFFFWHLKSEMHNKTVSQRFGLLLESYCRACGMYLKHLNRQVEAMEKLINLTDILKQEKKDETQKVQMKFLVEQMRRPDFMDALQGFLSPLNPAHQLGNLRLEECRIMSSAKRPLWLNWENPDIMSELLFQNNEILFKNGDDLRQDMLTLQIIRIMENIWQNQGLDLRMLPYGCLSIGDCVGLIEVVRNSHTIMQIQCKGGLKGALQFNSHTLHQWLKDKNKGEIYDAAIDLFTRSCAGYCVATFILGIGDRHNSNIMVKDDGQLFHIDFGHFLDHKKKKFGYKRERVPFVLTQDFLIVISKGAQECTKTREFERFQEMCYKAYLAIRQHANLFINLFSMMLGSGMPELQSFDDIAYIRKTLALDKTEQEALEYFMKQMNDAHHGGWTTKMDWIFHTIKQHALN
In short: as §1

PRKCI = PRKCI (Homo sapiens, UniProt P41743)
Chain of PRKCI (P41743 whole entry): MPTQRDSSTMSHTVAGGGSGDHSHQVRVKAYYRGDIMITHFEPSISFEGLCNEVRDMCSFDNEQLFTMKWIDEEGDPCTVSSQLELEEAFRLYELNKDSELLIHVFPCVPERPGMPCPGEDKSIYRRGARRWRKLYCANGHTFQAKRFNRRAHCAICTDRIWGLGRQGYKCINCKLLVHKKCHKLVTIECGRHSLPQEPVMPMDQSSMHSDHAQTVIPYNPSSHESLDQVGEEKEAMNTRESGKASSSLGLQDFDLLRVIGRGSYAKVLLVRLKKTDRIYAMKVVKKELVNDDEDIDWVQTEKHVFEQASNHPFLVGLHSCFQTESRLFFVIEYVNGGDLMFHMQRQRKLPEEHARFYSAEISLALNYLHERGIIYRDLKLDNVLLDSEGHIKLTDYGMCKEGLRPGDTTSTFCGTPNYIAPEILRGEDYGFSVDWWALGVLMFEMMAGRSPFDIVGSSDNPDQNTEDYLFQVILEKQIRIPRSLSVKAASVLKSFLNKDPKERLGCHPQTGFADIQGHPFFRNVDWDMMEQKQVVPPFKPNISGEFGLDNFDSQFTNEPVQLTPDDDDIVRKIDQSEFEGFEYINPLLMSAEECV
In short: as §1

CHEK2 = CHEK2 (Homo sapiens, UniProt O96017)
In short: as §1

SLK = SLK (Homo sapiens, UniProt Q9H2G2)
In short: as §1

LTK = LTK (Homo sapiens, UniProt P29376)
In short: as §1

S6K1 = molecular target: T1, S6K1 (Homo sapiens, UniProt P23443)
T1 construct: gene RPS6KB1
In short: as §1

NEK2 = NEK2 (Homo sapiens, UniProt P51955)
In short: as §1

TSSK1B = TSSK1B (Homo sapiens, UniProt Q9BXA7)
In short: as §1

[1] = molecular target: T2, ABL1(T315I)-nonphosphorylated (Homo sapiens, UniProt P00519, T315I)
T2 construct: nonphosphorylated
In short: as §1

PIK3CA(C420R) = PIK3CA(C420R) (Homo sapiens, UniProt P42336, C420R)
Chain of PIK3CA(C420R) (P42336 whole entry C420R): as the sequence (P42336 whole entry I800L) above, with C420R, L800I counted along it
In short: as §1

PCTK2 = molecular target: T3, PCTK2 (Homo sapiens, UniProt Q00537)
T3 construct: gene CDK17
In short: as §1

YSK4 = molecular target: T4, YSK4 (Homo sapiens, UniProt Q56UN5)
T4 construct: gene MAP3K19
In short: as §1

EPHB2 = EPHB2 (Homo sapiens, UniProt P29323)
In short: as §1

KIT(V559D) = KIT(V559D) (Homo sapiens, UniProt P10721, V559D)
In short: as §1

MAST1 = MAST1 (Homo sapiens, UniProt Q9Y2H9)
In short: as §1

CSK = CSK (Homo sapiens, UniProt P41240)
In short: as §1

AAK1 = AAK1 (Homo sapiens, UniProt Q2M2I8)
Chain of AAK1 (Q2M2I8 whole entry): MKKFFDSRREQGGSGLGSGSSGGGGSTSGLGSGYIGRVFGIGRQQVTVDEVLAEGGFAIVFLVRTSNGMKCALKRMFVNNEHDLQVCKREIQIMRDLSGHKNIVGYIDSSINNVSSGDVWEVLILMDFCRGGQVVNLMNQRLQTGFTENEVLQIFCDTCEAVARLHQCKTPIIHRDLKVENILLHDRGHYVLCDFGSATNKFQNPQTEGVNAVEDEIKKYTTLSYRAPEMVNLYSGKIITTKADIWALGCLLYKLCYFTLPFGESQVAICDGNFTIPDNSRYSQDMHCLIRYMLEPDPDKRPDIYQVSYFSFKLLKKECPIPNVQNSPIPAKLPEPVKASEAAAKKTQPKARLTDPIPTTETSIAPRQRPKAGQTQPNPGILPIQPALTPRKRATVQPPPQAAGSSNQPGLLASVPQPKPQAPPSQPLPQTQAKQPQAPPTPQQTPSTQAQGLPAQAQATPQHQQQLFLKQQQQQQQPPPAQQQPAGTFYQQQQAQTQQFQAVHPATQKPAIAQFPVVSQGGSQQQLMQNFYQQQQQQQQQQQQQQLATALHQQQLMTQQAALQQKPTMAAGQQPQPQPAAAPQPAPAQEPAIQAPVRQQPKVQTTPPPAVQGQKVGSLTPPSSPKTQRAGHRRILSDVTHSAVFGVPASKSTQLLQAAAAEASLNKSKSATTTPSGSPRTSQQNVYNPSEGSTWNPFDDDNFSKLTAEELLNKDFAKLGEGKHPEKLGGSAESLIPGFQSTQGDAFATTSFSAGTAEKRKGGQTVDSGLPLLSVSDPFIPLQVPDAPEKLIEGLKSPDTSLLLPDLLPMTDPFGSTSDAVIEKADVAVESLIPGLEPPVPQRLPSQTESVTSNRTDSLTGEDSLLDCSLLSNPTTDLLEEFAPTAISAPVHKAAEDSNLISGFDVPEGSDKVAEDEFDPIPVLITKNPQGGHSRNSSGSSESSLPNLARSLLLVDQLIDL
In short: as §1

IRAK1 = IRAK1 (Homo sapiens, UniProt P51617)
In short: as §1

RET = RET (Homo sapiens, UniProt P07949)
In short: as §1

FRK = FRK (Homo sapiens, UniProt P42685)
Chain of FRK (P42685 whole entry): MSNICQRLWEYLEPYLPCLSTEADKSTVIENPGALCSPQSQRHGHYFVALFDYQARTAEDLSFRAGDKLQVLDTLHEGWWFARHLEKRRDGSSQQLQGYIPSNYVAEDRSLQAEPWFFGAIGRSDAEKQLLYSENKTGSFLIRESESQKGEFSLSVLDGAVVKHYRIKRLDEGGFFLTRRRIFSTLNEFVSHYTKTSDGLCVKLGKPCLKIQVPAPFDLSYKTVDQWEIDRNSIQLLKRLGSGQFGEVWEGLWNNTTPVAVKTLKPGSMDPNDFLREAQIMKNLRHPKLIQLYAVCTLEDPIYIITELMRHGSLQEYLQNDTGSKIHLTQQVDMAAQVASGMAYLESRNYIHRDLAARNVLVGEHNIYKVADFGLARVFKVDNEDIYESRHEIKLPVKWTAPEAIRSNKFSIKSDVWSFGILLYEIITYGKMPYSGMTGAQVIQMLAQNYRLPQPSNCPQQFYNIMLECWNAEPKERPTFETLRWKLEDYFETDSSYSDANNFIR
In short: as §1

MRCKB = molecular target: T5, MRCKB (Homo sapiens, UniProt Q9Y5S2)
T5 construct: gene CDC42BPB
T5 sequence (Q9Y5S2 whole entry): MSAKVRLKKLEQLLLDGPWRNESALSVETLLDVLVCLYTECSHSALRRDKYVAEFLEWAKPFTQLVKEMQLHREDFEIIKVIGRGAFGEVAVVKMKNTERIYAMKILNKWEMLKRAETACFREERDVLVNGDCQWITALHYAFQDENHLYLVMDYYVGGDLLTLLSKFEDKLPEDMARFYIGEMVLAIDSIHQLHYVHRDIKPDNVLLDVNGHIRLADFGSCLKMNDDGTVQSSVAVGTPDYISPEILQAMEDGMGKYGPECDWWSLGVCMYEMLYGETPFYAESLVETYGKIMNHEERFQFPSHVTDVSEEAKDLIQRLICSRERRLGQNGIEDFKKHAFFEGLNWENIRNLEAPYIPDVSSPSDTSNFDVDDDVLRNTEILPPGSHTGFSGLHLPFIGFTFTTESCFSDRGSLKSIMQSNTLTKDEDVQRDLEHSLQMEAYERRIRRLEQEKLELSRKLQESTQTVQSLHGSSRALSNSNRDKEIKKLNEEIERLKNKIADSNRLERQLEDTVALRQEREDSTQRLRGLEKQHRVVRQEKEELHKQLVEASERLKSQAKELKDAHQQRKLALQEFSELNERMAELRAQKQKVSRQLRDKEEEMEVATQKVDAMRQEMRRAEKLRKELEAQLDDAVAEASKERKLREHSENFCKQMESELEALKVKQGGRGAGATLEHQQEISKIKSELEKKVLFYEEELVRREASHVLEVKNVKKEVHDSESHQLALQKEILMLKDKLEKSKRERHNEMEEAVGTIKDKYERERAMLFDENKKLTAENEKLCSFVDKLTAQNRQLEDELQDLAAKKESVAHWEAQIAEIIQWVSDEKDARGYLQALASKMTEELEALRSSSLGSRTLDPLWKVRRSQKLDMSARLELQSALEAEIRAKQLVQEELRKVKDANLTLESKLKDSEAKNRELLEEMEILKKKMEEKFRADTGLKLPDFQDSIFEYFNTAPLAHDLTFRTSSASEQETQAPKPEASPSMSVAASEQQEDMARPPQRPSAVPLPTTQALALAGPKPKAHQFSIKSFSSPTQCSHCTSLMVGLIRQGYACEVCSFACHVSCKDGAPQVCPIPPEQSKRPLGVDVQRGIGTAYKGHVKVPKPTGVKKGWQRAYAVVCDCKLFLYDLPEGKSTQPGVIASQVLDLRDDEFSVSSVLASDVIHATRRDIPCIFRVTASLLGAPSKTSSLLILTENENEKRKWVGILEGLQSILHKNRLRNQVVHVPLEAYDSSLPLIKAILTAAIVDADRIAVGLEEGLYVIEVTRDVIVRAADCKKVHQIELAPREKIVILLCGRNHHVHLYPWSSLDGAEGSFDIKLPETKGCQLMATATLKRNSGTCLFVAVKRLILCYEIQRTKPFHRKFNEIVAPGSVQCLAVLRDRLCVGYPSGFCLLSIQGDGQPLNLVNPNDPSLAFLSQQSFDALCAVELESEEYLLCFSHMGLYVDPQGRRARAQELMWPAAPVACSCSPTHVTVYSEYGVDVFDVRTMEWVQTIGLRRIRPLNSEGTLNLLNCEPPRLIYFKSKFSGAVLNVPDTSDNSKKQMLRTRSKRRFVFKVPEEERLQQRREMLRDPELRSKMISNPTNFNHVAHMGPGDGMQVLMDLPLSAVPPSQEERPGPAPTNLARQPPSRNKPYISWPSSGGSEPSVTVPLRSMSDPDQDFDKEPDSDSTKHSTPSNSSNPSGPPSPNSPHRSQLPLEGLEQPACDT
In short: as §1

inhibition at 1 µM (CAMK4): 1%
inhibition at 1 µM (CLK3): 0%
inhibition at 1 µM (CDKL5): 19%
inhibition at 1 µM (PIK3CA(I800L)): 38%
inhibition at 1 µM (PRKCI): 25%
inhibition at 1 µM (CHEK2): 13%
inhibition at 1 µM (SLK): 0%
inhibition at 1 µM (LTK): 12%
inhibition at 1 µM (S6K1): 20%
inhibition at 1 µM (NEK2): 1%
inhibition at 1 µM (TSSK1B): 9%
inhibition at 1 µM [1]: 9%
inhibition at 1 µM (PIK3CA(C420R)): 11%
inhibition at 1 µM (PCTK2): 0%
inhibition at 1 µM (YSK4): 0%
inhibition at 1 µM (EPHB2): 2%
inhibition at 1 µM (KIT(V559D)): 0%
inhibition at 1 µM (MAST1): 14%
inhibition at 1 µM (CSK): 2%
inhibition at 1 µM (AAK1): 4%
inhibition at 1 µM (IRAK1): 11%
inhibition at 1 µM (RET): 0%
inhibition at 1 µM (FRK): 0%
inhibition at 1 µM (MRCKB): 1%
Compound: CNS(=O)(=O)c1ccc(N(C)C)c(Nc2nc(C)nc3cc(OC)c(OC)cc23)c1 [compound 15, 3-((6,7-dimethoxy-2-methylquinazolin-4-yl)amino)-4-(dimethylamino)-N-methylbenzenesulfonamide]
